Reference: patent publication US20220362151A1, “LIPOSOME FORMULATION” (ROSI CHARNI AS, priority 2019, published 2022)
Counter-ions that a name gives are not always drawn.

Tests used:
[1] = Solubility in solvents; format: physicochemical
Description: Hydrogenated egg phosphatidylcholine (HEPC), cholesterol (CHO) and fatty acid compound (PA, N-TTA and TTA) were weighed out separately and dissolved in chloroform. N-TTA is not soluble in chloroform alone and was therefore dissolved in a 1:1 mixture of methanol and chloroform. The dissolved lipids were mixed in a molar ratio of 1.81 HEPC:1CHO and 0.5-2 PA/N-TTA/TTA in a 100 or 250 mL Duran round bottom flasks. Next, a thin lipid film was made by slowly evaporating the solvents by using Laborota 4000 rotary evaporator at light vacuum, 200 mbar, and 60 rpm for 1.5-2.5 hours depending on the volume of solvents. To ensure a solvent-free lipid film, full vacuum (0 mbar) was applied the last 30 minutes.
(§1) As a preliminary test, NB4 was exposed to TTA, 2-tr-TTA and PA dissolved in DMSO in concentrations between 37.5 to 300 μM for 48 hours. […] It was decided to not try higher concentrations of TTA PA and 2-tr-TTA dissolved in DMSO because of DMSO's cellular toxicity. In this project, one aim was to compare TTA with N-TTA and 2-tr-N-TTA. […] Compared to DMSO-control there was no significant decrease in cell viability after treatment with B SFAs dissolved in DMSO (p>0.05).

[2] = system: NB4 cell line; assay: WST-1 viability assay, fatty acids dissolved in DMSO; format: cell-based; details: 48 hours
Description: NB4 cells at a concentration of 0.1×10^5 cells/mL were incubated with 37.5, 75, 150 and 300 μM of TTA, 2-tr-TTA and PA dissolved in DMSO for 48 hours. Cell viability was assessed with WST-1 assay after 4 hours of incubation, and the absorption was related to the DMSO-control. Cell viability is presented as percentage of DMSO-control (100%). The assay was performed with triplicates for each concentration of the individual SBFA and the result is presented as mean of the triplicates±SD, n=1.
as §1

| solubility in DMSO [1] | solubility in chloroform ([1]; chloroform alone, dissolved in 1:1 methanol and chloroform) | Compound | cell viability (percentage of DMSO-control), WST-1 ([2]; NB4, 37.5-300 μM dissolved in DMSO, n=1, p>0.05) | metabolic activity (WST-1), trend as presented in FIG. 1 ([2]; NB4, 37.5-300 μM in DMSO, stimulating effect especially at 75 μM) |
| --- | --- | --- | --- | --- |
| seemingly insoluble | not soluble | CCCCCCCCCCCCCCNCC(=O)O [N-TTA, N-tetradecylglycine] |  |  |
| seemingly insoluble |  | CC#CCCCCCCCCCCCNCC(=O)O [2-trN-TTA, Tetradec-12-yn-1-ylglycine hydrochloride] |  |  |
|  |  | CC#CCCCCCCCCCCCSCC(=O)O [2-tr-TTA, 2-(Tetradec-12-yn-1-ylthio)acetic acid] | lack of significant antiproliferative effect | stimulating effect |
